The target of the assay is T1, BCL6 (Homo sapiens, UniProt P41182).
T1 construct: Endogenous BCL6 was tagged with the 11-amino acid SmBiT through CRISPR/Cas9 gene editing; endogenous in cells; host or cells: Su-DHL-4 (CRISPR/Cas9 knock-in, single cell clone)
Put plainly: HiBiT cellular degradation assay in Su-DHL-4 cells. In kind it is cell-based. As to conditions: concentration to reach 50% degradation of endogenous SmBiT-tagged BCL6, 24 hours of compound treatment. Summed up:
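SU-DHL-4 cells with endogenous BCL6 SmBiT-tagged by CRISPR/Cas9 treated with compound for 24 hours, then lysed and LgBiT added to reconstitute nanoluciferase; luminescence read after substrate addition. Degradation as percentage of DMSO control; DC50 is concentration giving 50% degradation.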
On the technique in general: HiBiT is a short tag that completes a luciferase, so light tracks the accessible tagged protein.

SMILES strings stand for the structures. Counter-ions that a name gives are not always drawn. A value given as a limit tells only on which side of the number the result lay.

A word on the DC50: it is the midpoint of the concentration-degradation curve. Low readings indicate degradation at low concentration, high ones degradation only at high concentration.

`CNCC(O)Cn1c(=O)c(OCC(=O)NC)cc2cc(Nc3nc(N4C[C@@H](C)C(F)[C@@H](C)C4)c(C#N)cc3Cl)ccc21` (stereo partly drawn) [Compound 67, 2-((6-((3-Chloro-5-cyano-6-((3S,4S,5R)-4-fluoro-3,5-dimethylpiperidin-1-yl)pyridin-2-yl)amino)-1-(2-hydroxy-3-(methylamino)propyl)-2-oxo-1,2-dihydroquinolin-3-yl)oxy)-N-methylacetamide] displayed a DC50 of 4 nM. This counts as single-digit nanomolar. Under `CNC(=O)COc1cc2cc(Nc3nc(N4C[C@@H](C)C(F)[C@@H](C)C4)c(C#N)cc3Cl)ccc2n(CCN2CCOCC2)c1=O` (stereo partly drawn) [Compound 68, 2-[[6-[[3-Chloro-5-cyano-6-[(3R,5S)-4-fluoro-3,5-dimethyl-1-piperidyl]-2-pyridyl]amino]-1-(2-morpholinoethyl)-2-oxo-3-quinolyl]oxy]-N-methyl-acetamide] stands 4 nM. On to `CNC(=O)COc1cc2cc(Nc3nc(N4C[C@@H](C)[C@@H](F)[C@@H](C)C4)c(C#N)cc3Cl)ccc2n(CCCN)c1=O` [Compound 69, 2-((1-(3-Aminopropyl)-6-((3-chloro-5-cyano-6-((3S,4S,5R)-4-fluoro-3,5-dimethylpiperidin-1-yl)pyridin-2-yl)amino)-2-oxo-1,2-dihydroquinolin-3-yl)oxy)-N-methylacetamide], for which the DC50 was found to be 15 nM. For `C[C@@H]1CN(c2nc(Nc3ccc4c(c3)cc(OC[C@@H]3CNCCO3)c(=O)n4C)c(Cl)cc2C#N)C[C@H](C)[C@@H]1F` [Compound 70, 5-Chloro-2-((3S,4S,5R)-4-fluoro-3,5-dimethylpiperidin-1-yl)-6-((1-methyl-3-((S)-morpholin-2-ylmethoxy)-2-oxo-1,2-dihydroquinolin-6-yl)amino)nicotinonitrile], the DC50 was over 400 nM. Under `C[C@@H]1CN(c2nc(Nc3ccc4c(c3)cc(OC[C@H]3CNCCO3)c(=O)n4C)c(Cl)cc2C#N)C[C@H](C)[C@@H]1F` [Compound 71, 5-Chloro-2-((3S,4S,5R)-4-fluoro-3,5-dimethylpiperidin-1-yl)-6-((1-methyl-3-((R)-morpholin-2-ylmethoxy)-2-oxo-1,2-dihydroquinolin-6-yl)amino)nicotinonitrile] stands over 400 nM; under `CNC(=O)COc1cc2cc(Nc3nc(N4C[C@@H](C)[C@@H](F)[C@@H](C)C4)c(C#N)cc3Cl)ccc2n(CCN(C)C)c1=O` [Compound 72, 2-((6-((3-Chloro-5-cyano-6-((3S,4S,5R)-4-fluoro-3,5-dimethylpiperidin-1-yl)pyridin-2-yl)amino)-1-(2-(dimethylamino)ethyl)-2-oxo-1,2-dihydroquinolin-3-yl)oxy)-N-methylacetamide], 2 nM. `CNC(=O)COc1cc2cc(Nc3nc(N4C[C@@H](C)[C@@H](O)[C@@H](C)C4)c(C#N)cc3Cl)ccc2n(CCN(C)C)c1=O` [Compound 73, 2-((6-((3-chloro-5-cyano-6-((3S,4S,5R)-4-hydroxy-3,5-dimethylpiperidin-1-yl)pyridin-2-yl)amino)-1-(2-(dimethylamino)ethyl)-2-oxo-1,2-dihydroquinolin-3-yl)oxy)-N-methylacetamide] came in with a DC50 of 9 nM. This DC50 is about 4.5-fold higher than that of the compound before. The compound `C[C@@H]1CN(c2nc(Nc3ccc4c(c3)n(CCC(C)(C)O)c(=O)n4C)c(Cl)cc2C#N)C[C@H](O)C1(F)F` [Compound 74, 5-chloro-2-((3S,5R)-4,4-difluoro-3-hydroxy-5-methylpiperidin-1-yl)-6-((3-(3-hydroxy-3-methylbutyl)-1-methyl-2-oxo-2,3-dihydro-1H-benzo[d]imidazol-5-yl)amino)nicotinonitrile] registered a 50% degradation concentration (DC50) of 22 nM. In turn, `C[C@H]1CN(c2nc(Nc3ccc4c(c3)n(CCC(C)(C)O)c(=O)n4C)c(Cl)cc2C#N)C[C@@H](O)C1(F)F` [Compound 75, 5-chloro-2-((3R,5S)-4,4-difluoro-3-hydroxy-5-methylpiperidin-1-yl)-6-((3-(3-hydroxy-3-methylbutyl)-1-methyl-2-oxo-2,3-dihydro-1H-benzo[d]imidazol-5-yl)amino)nicotinonitrile] returned a DC50 of over 400 nM. Under `CNC(=O)COc1cc2cc(Nc3nc(N4CC(C)CC(O)C4)c(C#N)cc3Cl)ccc2n(CCN(C)C)c1=O` (stereo not shown) [Compound 76, 2-((6-((3-Chloro-5-cyano-6-(3-hydroxy-5-methylpiperidin-1-yl)pyridin-2-yl)amino)-1-(2-(dimethylamino)ethyl)-2-oxo-1,2-dihydroquinolin-3-yl)oxy)-N-methylacetamide] stands 4 nM.

`CNC(=O)COc1cc2cc(Nc3nc(N4C[C@@H](C)C(F)[C@@H](C)C4)c(C#N)cc3Cl)ccc2n(CCN(C)C)c1=O` (stereo partly drawn) [Compound 77, 2-((6-((3-Chloro-5-cyano-6-((3R,4R,5S)-4-fluoro-3,5-dimethylpiperidin-1-yl)pyridin-2-yl)amino)-1-(2-(dimethylamino)ethyl)-2-oxo-1,2-dihydroquinolin-3-yl)oxy)-N-methylacetamide] yielded a DC50 of 4 nM. The compound `CNC(=O)COc1cc2cc(Nc3nc(N4C[C@@H](C)C[C@@H](C(=O)O)C4)c(C#N)cc3Cl)ccc2n(C)c1=O` [Compound 78, (3R,5S)-1-(5-chloro-3-cyano-6-((1-methyl-3-(2-(methylamino)-2-oxoethoxy)-2-oxo-1,2-dihydroquinolin-6-yl)amino)pyridin-2-yl)-5-methylpiperidine-3-carboxylic acid] registered a DC50 of over 400 nM. Under `CNC(=O)COc1cc2cc(Nc3nc(N4C[C@H](C)C[C@H](C(=O)O)C4)c(C#N)cc3Cl)ccc2n(C)c1=O` [Compound 79, (3S,5R)-1-(5-chloro-3-cyano-6-((1-methyl-3-(2-(methylamino)-2-oxoethoxy)-2-oxo-1,2-dihydroquinolin-6-yl)amino)pyridin-2-yl)-5-methylpiperidine-3-carboxylic acid] stands 12 nM; under `C[C@@H]1CN(c2nc(Nc3ccc4c(c3)n(CCC(C)(C)O)c(=O)n4C)c(F)cc2C#N)C[C@H](N)C1(F)F` [Compound 80, 2-((3S,5R)-3-Amino-4,4-difluoro-5-methylpiperidin-1-yl)-5-fluoro-6-((3-(3-hydroxy-3-methylbutyl)-1-methyl-2-oxo-2,3-dihydro-1H-benzo[d]imidazol-5-yl)amino)nicotinonitrile hydrochloride], over 400 nM; under `C[C@H]1CN(c2nc(Nc3ccc4c(c3)n(CCC(C)(C)O)c(=O)n4C)c(F)cc2C#N)C[C@@H](N)C1(F)F` [Compound 81, 2-((3R,5S)-3-Amino-4,4-difluoro-5-methylpiperidin-1-yl)-5-fluoro-6-((3-(3-hydroxy-3-methylbutyl)-1-methyl-2-oxo-2,3-dihydro-1H-benzo[d]imidazol-5-yl)amino)nicotinonitrile hydrochloride], 31 nM.

The compound `C[C@@H]1CN(c2nc(Nc3ccc4c(c3)n(CCC(C)(C)O)c(=O)n4C)c(F)cc2C#N)C[C@H](O)C1(F)F` [Compound 82, 2-((3S,5R)-4,4-difluoro-3-hydroxy-5-methylpiperidin-1-yl)-5-fluoro-6-((3-(3-hydroxy-3-methylbutyl)-1-methyl-2-oxo-2,3-dihydro-1H-benzo[d]imidazol-5-yl)amino)nicotinonitrile] gave a DC50 of 33 nM. For `C[C@@H]1CN(c2nc(Nc3ccc4c(c3)n(C[C@H]3CNC(=O)O3)c(=O)n4C)c(F)cc2C#N)C[C@H](N)C1(F)F` [Compound 84, 2-((3S,5R)-3-amino-4,4-difluoro-5-methylpiperidin-1-yl)-5-fluoro-6-((1-methyl-2-oxo-3-(((R)-2-oxooxazolidin-5-yl)methyl)-2,3-dihydro-1H-benzo[d]imidazol-5-yl)amino)nicotinonitrile] the value was over 400 nM; for `C[C@H]1CN(c2nc(Nc3ccc4c(c3)n(C[C@@H]3CNC(=O)O3)c(=O)n4C)c(F)cc2C#N)C[C@@H](N)C1(F)F` [Compound 85, 2-[(3R,5S)-3-amino-4,4-difluoro-5-methyl-1-piperidyl]-5-fluoro-6-[[1-methyl-2-oxo-3-[[(5S)-2-oxooxazolidin-5-yl]methyl]benzimidazol-5-yl]amino]pyridine-3-carbonitrile], over 400 nM; for `C[C@@H]1CN(c2nc(Nc3ccc4c(c3)n(C[C@H]3CNC(=O)O3)c(=O)n4C)c(F)cc2C#N)C[C@H](C)[C@@H]1F` [Compound 86, 5-Fluoro-2-((3S,4S,5R)-4-fluoro-3,5-dimethylpiperidin-1-yl)-6-((1-methyl-2-oxo-3-(((R)-2-oxooxazolidin-5-yl)methyl)-2,3-dihydro-1H-benzo[d]imidazol-5-yl)amino)nicotinonitrile], 83 nM. In turn, `C[C@@H]1CN(c2nc(Nc3ccc4c(c3)n(C[C@@H]3CNC(=O)O3)c(=O)n4C)c(F)cc2C#N)C[C@H](C)[C@@H]1F` [Compound 87, 5-Fluoro-2-[(3S,4S,5R)-4-fluoro-3,5-dimethyl-1-piperidyl]-6-[[1-methyl-2-oxo-3-[[(5S)-2-oxooxazolidin-5-yl]methyl]benzimidazol-5-yl]amino]pyridine-3-carbonitrile] displayed a DC50 of 101 nM. Under `C[C@@H]1CN(c2nc(Nc3ccc4c(c3)n(C[C@@H]3COC(=O)N3)c(=O)n4C)c(F)cc2C#N)C[C@H](C)[C@@H]1F` [Compound 88, 5-Fluoro-2-((3S,4S,5R)-4-fluoro-3,5-dimethylpiperidin-1-yl)-6-((1-methyl-2-oxo-3-(((R)-2-oxooxazolidin-4-yl)methyl)-2,3-dihydro-1H-benzo[d]imidazol-5-yl)amino)nicotinonitrile] stands 80 nM. `C[C@@H]1CN(c2nc(Nc3ccc4c(c3)n(C[C@H]3COC(=O)N3)c(=O)n4C)c(F)cc2C#N)C[C@H](C)[C@@H]1F` [Compound 89, 5-Fluoro-2-((3S,4S,5R)-4-fluoro-3,5-dimethylpiperidin-1-yl)-6-((1-methyl-2-oxo-3-(((S)-2-oxooxazolidin-4-yl)methyl)-2,3-dihydro-1H-benzo[d]imidazol-5-yl)amino)nicotinonitrile]: it took 102 nM to reach half-maximal degradation (DC50).

For the origin of these results see patent publication US20250074890A1, “CYANOPYRIDINE AND CYANOPYRIMIDINE BCL6 DEGRADERS” (DANA-FARBER CANCER INSTITUTE, INC., priority 2021, published 2025).
